Experimental data published in ChEMBL document CHEMBL5523762, “Discovery of Potent and Selective G9a Degraders for the Treatment of Pancreatic Cancer” (J Med Chem, 2024).
Activity calls are given as the source filed them. The rule behind the calls is not given here.

Assays:
[1] = biological target: T1, Protein cereblon/Histone-lysine N-methyltransferase EHMT1 (Homo sapiens) (UniProt Q9H9B1+Q96SW2); assay: PROTAC activity at CRBN/GLP in human PANC-1 cells assessed as downregulation of GLP protein level at 1 uM in presence of 50 uM cycloheximide measured after 0 to 16 hrs by […]; type: cell-based; details: time 0-16 hrs
[2] = system: PANC-1; assay: Effect on H3K4me2 level in human PANC-1 cells at 0.04 to 10 uM measured after 24 hrs by Western blot analysis; type: functional, cell-based; details: dose 0.04-10 µM
[3] = AUC (0 to t) in male ICR mouse at 5 mg/kg, iv measured upto 24 hrs by LC-MS/MS analysis; type: ADME, organism-based; details: in vivo
[4] = system: ASPC1; assay: Antiproliferative activity against human ASPC1 cells assessed as inhibition of cell growth measured after 72 hrs by SRB assay; type: functional, cell-based
[5] = biological target: T2, Protein cereblon/Histone-lysine N-methyltransferase EHMT2 (Homo sapiens, UniProt Q96KQ7+Q96SW2); assay: PROTAC activity at CRBN/G9a in human PANC-1 cells assessed as induction of G9a degradation measured after 8 hrs by Western blot analysis; type: cell-based
[6] = system: CWR22R; assay: Antiproliferative activity against human 22Rv1 cells assessed as inhibition of cell growth measured after 7 days by SRB assay; type: functional, cell-based; details: 22Rv1, 168 h
[7] = system: KP-4; assay: Synergistic antiproliferative activity against human KP-4 cells assessed as combination index for ED90 upto 20 uM incubated for 72 hrs in presence of MRTX1133; type: functional
[8] = system: KP-4; assay: Antiproliferative activity against human KP-4 cells assessed as inhibition of cell growth measured after 72 hrs by SRB assay; type: functional, cell-based
[9] = system: KP-4; assay: Synergistic antiproliferative activity against human KP-4 cells at 0 to 10 uM incubated for 72 hrs in presence of MRTX1133 by SRB assay; type: functional, cell-based; details: dose 0-10 µM
[10] = system: PANC-1; assay: Downregulation of H3K9me2 level in human PANC-1 cells measured after 24 hrs by Western blot analysis; type: functional, cell-based; details: dose 0.04-10 µM
[11] = system: ASPC1; assay: Sensitization of human ASPC1 cells to MRTX1133 assessed as upregulation of gammaH2AX level at 10 uM incubated for 24 hrs in presence of 1 uM MRTX1133 by Western blot analysis; type: functional, cell-based
[12] = biological target: T2, Protein cereblon/Histone-lysine N-methyltransferase EHMT2; assay: PROTAC activity at CRBN/G9a in human ASPC1 cells assessed as induction of G9a degradation measured after 8 hrs by Western blot analysis; type: cell-based
Target sequence in this assay (Q96KQ7 whole entry): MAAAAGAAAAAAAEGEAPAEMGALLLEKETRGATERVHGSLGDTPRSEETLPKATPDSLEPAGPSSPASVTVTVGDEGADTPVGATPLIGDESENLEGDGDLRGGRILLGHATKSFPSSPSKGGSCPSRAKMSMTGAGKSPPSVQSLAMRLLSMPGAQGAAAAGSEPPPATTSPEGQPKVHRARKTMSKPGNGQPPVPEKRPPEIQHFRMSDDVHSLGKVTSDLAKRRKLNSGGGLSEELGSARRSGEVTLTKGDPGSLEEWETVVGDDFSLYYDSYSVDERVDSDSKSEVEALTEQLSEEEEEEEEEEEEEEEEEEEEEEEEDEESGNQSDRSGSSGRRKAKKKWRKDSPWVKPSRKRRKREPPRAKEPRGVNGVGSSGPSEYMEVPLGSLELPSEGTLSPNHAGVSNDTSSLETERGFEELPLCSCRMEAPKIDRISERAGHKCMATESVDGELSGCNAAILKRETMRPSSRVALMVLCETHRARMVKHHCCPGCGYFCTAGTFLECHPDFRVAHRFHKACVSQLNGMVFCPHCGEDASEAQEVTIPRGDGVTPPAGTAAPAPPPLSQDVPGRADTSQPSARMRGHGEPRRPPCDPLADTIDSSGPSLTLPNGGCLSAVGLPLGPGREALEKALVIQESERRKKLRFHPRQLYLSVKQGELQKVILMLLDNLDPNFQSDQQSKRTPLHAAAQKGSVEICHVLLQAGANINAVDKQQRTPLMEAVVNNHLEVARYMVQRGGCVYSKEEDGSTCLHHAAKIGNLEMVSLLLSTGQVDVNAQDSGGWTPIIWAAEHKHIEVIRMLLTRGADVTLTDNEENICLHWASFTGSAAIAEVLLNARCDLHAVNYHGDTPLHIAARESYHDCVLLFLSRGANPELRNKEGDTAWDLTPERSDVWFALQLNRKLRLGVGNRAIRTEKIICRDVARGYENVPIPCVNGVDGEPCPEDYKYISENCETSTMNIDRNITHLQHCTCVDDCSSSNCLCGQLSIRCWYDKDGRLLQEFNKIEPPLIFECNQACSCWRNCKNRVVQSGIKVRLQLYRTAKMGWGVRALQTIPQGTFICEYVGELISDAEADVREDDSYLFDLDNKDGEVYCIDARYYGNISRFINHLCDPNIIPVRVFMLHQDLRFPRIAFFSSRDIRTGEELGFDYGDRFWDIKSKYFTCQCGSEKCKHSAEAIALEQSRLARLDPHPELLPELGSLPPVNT
Target sequence in this assay (Q96SW2 whole entry): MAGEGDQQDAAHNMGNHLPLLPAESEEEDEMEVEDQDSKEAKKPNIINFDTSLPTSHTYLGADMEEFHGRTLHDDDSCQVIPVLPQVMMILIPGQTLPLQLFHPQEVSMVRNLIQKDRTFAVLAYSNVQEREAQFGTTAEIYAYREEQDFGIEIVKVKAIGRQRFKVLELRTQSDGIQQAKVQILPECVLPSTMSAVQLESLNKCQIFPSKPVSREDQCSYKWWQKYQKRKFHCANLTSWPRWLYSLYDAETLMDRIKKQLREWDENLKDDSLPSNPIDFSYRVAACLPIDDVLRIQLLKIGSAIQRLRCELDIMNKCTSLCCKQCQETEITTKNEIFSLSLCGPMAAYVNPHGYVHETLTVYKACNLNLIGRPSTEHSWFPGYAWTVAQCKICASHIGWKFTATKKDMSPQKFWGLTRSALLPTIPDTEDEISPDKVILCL

[13] = system: PANC-1; assay: Effect on CK1alpha level in human PANC-1 cells at 0.008 to 10 uM measured after 8 hrs by western blot analysis; type: functional, cell-based; details: dose 0.008-10 µM
[14] = Half life in male ICR mouse at 20 mg/kg, ip measured upto 24 hrs by LC-MS/MS analysis; type: ADME, organism-based; details: in vivo
[15] = system: PANC-1; assay: Upregulation of cleaved PARP level in human PANC-1 cells at 0.1 to 10 uM measured after 24 hrs by Western blot analysis; type: functional, cell-based; details: dose 0.1-10 µM
[16] = system: PANC-1; assay: Effect on H3K4me1 level in human PANC-1 cells at 0.04 to 10 uM measured after 24 hrs by Western blot analysis; type: functional, cell-based; details: dose 0.04-10 µM
[17] = system: ASPC1; assay: Synergistic antiproliferative activity against human ASPC1 cells at 0 to 15 uM incubated for 72 hrs in presence of MRTX1133 by SRB assay; type: functional, cell-based; details: dose 0-15 µM
[18] = system: PANC-1; assay: Effect on H3K27me3 level in human PANC-1 cells at 0.04 to 10 uM measured after 24 hrs by Western blot analysis; type: functional, cell-based; details: dose 0.04-10 µM
[19] = biological target: T2, Protein cereblon/Histone-lysine N-methyltransferase EHMT2; assay: PROTAC activity at CRBN/G9a in human PANC-1 cells assessed as induction of G9a degradation at 1 uM pretreated with MG132 for 2 hrs followed by compound addition and measured after 8 hrs by Western blot analysis; type: cell-based
Target sequence in this assay (Q96KQ7 2-1210 limits assumed): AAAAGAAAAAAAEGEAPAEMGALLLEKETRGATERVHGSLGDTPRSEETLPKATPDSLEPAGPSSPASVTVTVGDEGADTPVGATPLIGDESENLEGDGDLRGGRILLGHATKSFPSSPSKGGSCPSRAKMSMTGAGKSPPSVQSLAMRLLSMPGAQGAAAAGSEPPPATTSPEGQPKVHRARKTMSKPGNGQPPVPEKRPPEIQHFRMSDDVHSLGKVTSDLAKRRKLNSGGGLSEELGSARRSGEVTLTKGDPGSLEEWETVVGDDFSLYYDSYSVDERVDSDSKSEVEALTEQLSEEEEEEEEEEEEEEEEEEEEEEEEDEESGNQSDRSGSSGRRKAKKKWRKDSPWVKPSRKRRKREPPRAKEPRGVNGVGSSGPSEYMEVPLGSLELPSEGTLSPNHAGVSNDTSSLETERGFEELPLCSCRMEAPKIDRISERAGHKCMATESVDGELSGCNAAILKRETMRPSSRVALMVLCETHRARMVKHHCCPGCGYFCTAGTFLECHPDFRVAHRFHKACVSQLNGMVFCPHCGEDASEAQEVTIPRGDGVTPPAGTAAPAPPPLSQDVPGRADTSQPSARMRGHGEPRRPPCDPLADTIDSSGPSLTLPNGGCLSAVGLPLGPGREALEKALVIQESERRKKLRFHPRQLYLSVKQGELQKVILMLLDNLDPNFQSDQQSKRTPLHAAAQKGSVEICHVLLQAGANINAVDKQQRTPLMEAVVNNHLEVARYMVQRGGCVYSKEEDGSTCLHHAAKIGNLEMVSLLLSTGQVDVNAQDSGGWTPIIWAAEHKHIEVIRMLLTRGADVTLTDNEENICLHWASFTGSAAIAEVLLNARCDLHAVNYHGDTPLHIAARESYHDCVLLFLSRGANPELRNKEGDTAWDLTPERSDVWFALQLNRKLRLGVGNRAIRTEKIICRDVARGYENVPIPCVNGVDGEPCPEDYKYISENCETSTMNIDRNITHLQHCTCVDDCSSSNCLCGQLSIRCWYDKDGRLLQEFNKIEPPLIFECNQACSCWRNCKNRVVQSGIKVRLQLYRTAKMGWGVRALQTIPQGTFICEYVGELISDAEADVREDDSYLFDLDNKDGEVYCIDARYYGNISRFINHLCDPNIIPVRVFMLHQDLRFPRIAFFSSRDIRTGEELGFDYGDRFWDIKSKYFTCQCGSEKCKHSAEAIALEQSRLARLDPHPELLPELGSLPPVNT
Target sequence in this assay (Q96SW2 whole entry partner): as the sequence (Q96SW2 whole entry) above

[20] = system: PANC-1; assay: Effect on H3K36me3 level in human PANC-1 cells at 0.04 to 10 uM measured after 24 hrs by Western blot analysis; type: functional, cell-based; details: dose 0.04-10 µM
[21] = system: PANC-1; assay: Upregulation of gammaH2AX expression in human PANC-1 cells at 0.1 to 10 uM measured after 24 hrs by Western blot analysis; type: functional, cell-based; details: dose 0.1-10 µM
[22] = system: PANC-08-13; assay: Synergistic antiproliferative activity against human PANC-08-13 cells assessed as combination index upto 20 uM incubated for 72 hrs in presence of MRTX1133; type: functional
[23] = system: ASPC1; assay: Downregulation of H3K9me2 level in human ASPC1 cells at 10 uM incubated for 24 hrs in presence of 1 uM MRTX1133 by Western blot analysis; type: functional, cell-based
[24] = system: PANC-1; assay: Effect on H3K79me3 level in human PANC-1 cells at 0.04 to 10 uM measured after 24 hrs by Western blot analysis; type: functional, cell-based; details: dose 0.04-10 µM
[25] = biological target: T1, Protein cereblon/Histone-lysine N-methyltransferase EHMT1 (Homo sapiens); assay: PROTAC activity at CRBN/GLP in human PANC-1 cells assessed as induction of GLP degradation at 1 uM measured after 8 to 24 hrs by Western blot analysis; type: cell-based; details: time 8-24 hrs
[26] = system: PANC-08-13; assay: Antiproliferative activity against human PANC-08-13 cells assessed as inhibition of cell growth measured after 72 hrs by SRB assay; type: functional, cell-based
[27] = system: PANC-08-13; assay: Synergistic antiproliferative activity against human PANC-08-13 cells assessed as combination index for ED90 upto 20 uM incubated for 72 hrs in presence of MRTX1133; type: functional
[28] = system: Panc1005; assay: Antiproliferative activity against human Panc1005 cells assessed as inhibition of cell growth measured after 72 hrs by SRB assay; type: functional, cell-based
[29] = system: KP-4; assay: Synergistic antiproliferative activity against human KP-4 cells assessed as combination index upto 20 uM incubated for 72 hrs in presence of MRTX1133; type: functional
[30] = biological target: T2, Protein cereblon/Histone-lysine N-methyltransferase EHMT2; assay: PROTAC activity at CRBN/G9a in human PANC-1 cells assessed as induction of G9a degradation at 1 uM measured after 8 to 24 hrs by Western blot analysis; type: cell-based; details: time 8-24 hrs
Target sequence in this assay (Q96KQ7 2-1210 limits assumed): as the sequence (Q96KQ7 2-1210 limits assumed) above
Target sequence in this assay (Q96SW2 whole entry partner): as the sequence (Q96SW2 whole entry) above

[31] = biological target: T2, Protein cereblon/Histone-lysine N-methyltransferase EHMT2; assay: PROTAC activity at CRBN/G9a in human PANC-1 cells assessed as downregulation of G9a protein level at 1 uM measured after 8 hrs by quantitative proteomics analysis; type: cell-based
Target sequence in this assay (Q96KQ7 2-1210 limits assumed): as the sequence (Q96KQ7 2-1210 limits assumed) above
Target sequence in this assay (Q96SW2 whole entry partner): as the sequence (Q96SW2 whole entry) above

[32] = system: Panc 02.03; assay: Antiproliferative activity against human Panc 02.03 cells assessed as inhibition of cell growth measured after 72 hrs by SRB assay; type: functional, cell-based
[33] = Volume of distribution at steady state in male ICR mouse at 5 mg/kg, iv measured upto 24 hrs by LC-MS/MS analysis; type: ADME, organism-based; details: in vivo, read-out: Vdss
[34] = biological target: T1, Protein cereblon/Histone-lysine N-methyltransferase EHMT1 (Homo sapiens); assay: PROTAC activity at CRBN/GLP in human PANC-1 cells assessed as induction of GLP degradation at 0.008 to 10 uM measured after 8 hrs by Western blot analysis; type: cell-based; details: dose 0.008-10 µM
[35] = system: Panc1005; assay: Synergistic antiproliferative activity against human Panc1005 cells assessed as combination index upto 20 uM incubated for 72 hrs in presence of MRTX1133; type: functional
[36] = biological target: T2, Protein cereblon/Histone-lysine N-methyltransferase EHMT2; assay: PROTAC activity at CRBN/G9a in human PANC-1 cells assessed as induction of G9a degradation at 1 uM pretreated with thalidomide for 2 hrs followed by compound addition and measured after 8 hrs by Western blot analysis; type: cell-based
Target sequence in this assay (Q96KQ7 2-1210 limits assumed): as the sequence (Q96KQ7 2-1210 limits assumed) above
Target sequence in this assay (Q96SW2 whole entry partner): as the sequence (Q96SW2 whole entry) above

[37] = system: PANC-1; assay: Effect on H3K27me2 level in human PANC-1 cells at 0.04 to 10 uM measured after 24 hrs by Western blot analysis; type: functional, cell-based; details: dose 0.04-10 µM

T1 sequence (Q96SW2 whole entry, looked up): as the sequence (Q96SW2 whole entry) above
T1 sequence (Q9H9B1 whole entry, looked up): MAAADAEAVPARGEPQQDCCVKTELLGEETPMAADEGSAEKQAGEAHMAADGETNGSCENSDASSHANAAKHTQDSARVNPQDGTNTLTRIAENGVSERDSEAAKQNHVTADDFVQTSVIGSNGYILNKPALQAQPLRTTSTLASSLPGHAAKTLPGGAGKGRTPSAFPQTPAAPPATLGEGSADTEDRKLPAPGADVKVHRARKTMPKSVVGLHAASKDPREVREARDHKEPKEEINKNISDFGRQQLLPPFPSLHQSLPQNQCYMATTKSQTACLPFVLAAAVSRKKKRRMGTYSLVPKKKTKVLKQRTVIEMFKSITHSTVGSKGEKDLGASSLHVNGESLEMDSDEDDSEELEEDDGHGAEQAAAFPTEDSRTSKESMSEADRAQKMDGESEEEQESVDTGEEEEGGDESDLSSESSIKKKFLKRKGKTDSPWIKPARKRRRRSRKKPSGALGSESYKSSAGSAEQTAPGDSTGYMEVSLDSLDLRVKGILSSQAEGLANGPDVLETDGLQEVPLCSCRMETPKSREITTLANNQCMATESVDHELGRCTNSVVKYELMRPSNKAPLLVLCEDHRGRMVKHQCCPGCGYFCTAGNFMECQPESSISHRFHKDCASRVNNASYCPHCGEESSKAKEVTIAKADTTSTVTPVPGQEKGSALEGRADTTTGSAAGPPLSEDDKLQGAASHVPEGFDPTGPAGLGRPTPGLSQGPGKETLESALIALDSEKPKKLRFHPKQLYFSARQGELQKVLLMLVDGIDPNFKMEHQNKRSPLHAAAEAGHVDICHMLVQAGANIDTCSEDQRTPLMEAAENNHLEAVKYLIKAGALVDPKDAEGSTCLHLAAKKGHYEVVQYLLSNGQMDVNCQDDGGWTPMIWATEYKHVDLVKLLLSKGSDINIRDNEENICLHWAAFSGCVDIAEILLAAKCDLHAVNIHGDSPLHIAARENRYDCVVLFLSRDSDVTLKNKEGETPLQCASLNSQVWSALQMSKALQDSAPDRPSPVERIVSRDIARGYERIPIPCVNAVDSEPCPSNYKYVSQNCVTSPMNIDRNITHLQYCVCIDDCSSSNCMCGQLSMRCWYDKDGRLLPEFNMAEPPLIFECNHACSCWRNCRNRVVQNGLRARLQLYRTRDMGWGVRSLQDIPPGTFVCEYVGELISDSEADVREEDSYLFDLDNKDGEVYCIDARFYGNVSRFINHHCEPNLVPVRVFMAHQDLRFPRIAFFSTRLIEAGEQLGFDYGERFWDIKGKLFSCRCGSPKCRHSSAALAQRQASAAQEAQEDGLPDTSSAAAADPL

For `COc1cc2c(NC3CCN(CCCC(=O)NCCCCCCCCNc4cccc5c4C(=O)N(C4CCC(=O)NC4=O)C5=O)CC3)nc(C3CCCCC3)nc2cc1OCCCN1CCCC1` (stereo not drawn), the Activity [1] was “inactive”, the Activity [2] was “inactive” and the AUC(0-t) at 24 h [3] was 3780 ng·h/mL. For the same molecule, the Activity [4] was “Active”, the Activity [5] was “Dose-Dependent Effect” and the DC50 [5] was 100 nM. The IC50 [6] was 9900 nM, the CI [7] was <0.4 and the Activity [8] was “Active”. The Activity [9] was “Active”, the Activity [10] was “Active” and the Activity [11] was “Active”. For the same molecule, the DC50 [12] was 200 nM, the Activity [13] was “inactive” and the half-life [14] was 4.2 h. The Activity [15] was “Active”, the Activity [16] was “inactive” and the Activity [17] was “Active”. The Activity [18] was “inactive”, the Activity [19] was “inactive” and the Activity [20] was “inactive”. The Activity [21] was “Active”, the CI [22] was <0.8 and the Activity [23] was “Active”. For the same molecule, the Activity [24] was “inactive”, the Activity [25] was “inactive” and the Activity [26] was “Active”. For the same molecule, the CI [27] was <0.4, the Activity [28] was “Active” and the CI [29] was <0.8. For the same molecule, the Activity [30] was “Active”, the Activity [31] was “Active” and the Activity [32] was “Active”. The Vd [33] was 2.61 L/kg, the Activity [34] was “inactive” and the CI [35] was <0.8. For the same molecule, the Activity [36] was “inactive” and the Activity [37] was “inactive”.
